Legend:
Assay type in all cases: cell-based
LNCaP cells = assay: Assay on inhibitory activity for LNCaP cell proliferation (CCK-8); conditions: 168 h incubation
Experimental: (§1) LNCaP cells in a good growth state were taken, washed with PBS, digested with pancreatin, and added with 2% CSS—FBS phenol red-free 1640 complete medium to terminate the digestion. The cells were collected by using a centrifuge tube, adjusted to a cell density of 1×10^5 cells/mL, and seeded in a 96-well plate (100 μL/well). Meanwhile, compounds were added using a nanoliter pipettor such that the final concentrations of the compounds were 10000 nM-0.61 nM. Two duplicate wells were set for each concentration, and meanwhile, a control was set. After another 168 h of incubation in the cell incubator, the detection reagent CCK-8 (manufacturer: Dojindo, 10 μL/well) was added.

VCaP cells = assay: Assay on inhibitory activity for VCaP cell proliferation (CCK-8); conditions: 168 h incubation
Experimental: as §1, with “2.1 Assay on inhibitory activity for VCaP cell proliferation VCaP” for “LNCaP”, “5%” for “2%”, “DMEM” for “1640”

AR in VCaP cells = target: T1, AR in VCaP cells (Homo sapiens, UniProt P10275); assay: Assay on degradation activity for AR in VCaP cells (HTRF human androgen receptor detection kit); conditions: 24 h incubation
T1 construct: Assay on Degradation Activity for AR in VCaP Cells; endogenous in cells; host or cells: VCaP cells
T1 sequence (P10275 1-920): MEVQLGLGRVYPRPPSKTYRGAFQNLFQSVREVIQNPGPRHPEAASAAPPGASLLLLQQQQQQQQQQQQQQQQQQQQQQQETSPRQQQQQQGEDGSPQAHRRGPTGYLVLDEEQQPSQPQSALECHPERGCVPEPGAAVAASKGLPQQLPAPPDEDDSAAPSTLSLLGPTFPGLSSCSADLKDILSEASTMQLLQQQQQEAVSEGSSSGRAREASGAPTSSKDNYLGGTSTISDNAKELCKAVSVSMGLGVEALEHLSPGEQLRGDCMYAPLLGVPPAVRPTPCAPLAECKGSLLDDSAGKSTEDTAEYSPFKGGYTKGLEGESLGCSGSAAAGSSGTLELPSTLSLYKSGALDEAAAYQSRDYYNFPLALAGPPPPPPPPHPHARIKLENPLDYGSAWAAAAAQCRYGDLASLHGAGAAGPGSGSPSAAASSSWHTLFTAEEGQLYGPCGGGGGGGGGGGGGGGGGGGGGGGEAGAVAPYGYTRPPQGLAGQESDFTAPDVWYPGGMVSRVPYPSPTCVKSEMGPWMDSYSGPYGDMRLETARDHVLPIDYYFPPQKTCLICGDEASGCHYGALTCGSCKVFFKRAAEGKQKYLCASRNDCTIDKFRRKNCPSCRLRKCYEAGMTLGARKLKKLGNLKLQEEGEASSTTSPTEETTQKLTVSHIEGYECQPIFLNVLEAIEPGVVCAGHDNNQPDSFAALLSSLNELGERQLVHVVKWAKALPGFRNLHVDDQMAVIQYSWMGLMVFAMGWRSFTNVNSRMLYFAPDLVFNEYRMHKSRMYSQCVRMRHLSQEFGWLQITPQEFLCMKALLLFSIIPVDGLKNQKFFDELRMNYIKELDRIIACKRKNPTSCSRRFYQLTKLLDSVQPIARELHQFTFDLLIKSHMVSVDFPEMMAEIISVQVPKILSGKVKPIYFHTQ
Experimental: The detection was carried out using the HTRF HUMAN ANDROGEN RECEPTOR DETECTION KIT (cisbio, 64ANDRPEG), 4× Supplemented Lysis buffer was prepared using the Blocking reagent stock solution (100×) and Lysis buffer stock solution (4×), and 1× Supplemented Lysis buffer was prepared using the 4× Supplemented Lysis buffer and ddH2O. Premixed antibody solutions were prepared using Detection buffer, Androgen Receptor Eu Cryptate antibody, and Androgen Receptor d2 antibody.
VCaP cells in a good growth state were taken, washed with PBS, digested with pancreatin, and added with 2% CSS—FBS phenol red-free DMEM complete medium to terminate the digestion. The cells were collected by using a centrifuge tube, adjusted to a cell density of 1×10^6 cells/mL, and seeded in a 96-well plate (100 µL/well). The cells were incubated overnight in a cell incubator. Compounds were added using a nanoliter pipettor such that the final concentrations of the compounds were 1000 nM-0.977 nM. Two duplicate wells were set for each concentration, and meanwhile, a control was set. After another 24 h of incubation in the cell incubator, the medium was pipetted out, the 1× Supplemented Lysis buffer was added at 40 μL/well to lyse the cells. After the cells were oscillated for 40 min at room temperature, 16 μL of the cell lysate was added to a 384-well plate, the Premixed antibody solutions were added at 4 μL/well, and the mixture was left to stand at 25° C. for 2 h. Fluorescence values were detected at 665 nm/620 nm using an Envision microplate reader, the four-parameter analysis was performed, the dose-response curves were fit, and DC50 (the concentration of the drug when the degradation rate reaches 50%) and Dmax (the maximum degradation rate) were calculated.

Compound	IC50 (LNCaP cells; Homo sapiens) [µM]	DC50 (AR in VCaP cells) [µM]	also measured
CN(c1ccc(C#N)c(Cl)c1)[C@H]1CC[C@H](NC(=O)c2ccc(N3CCC(CN4CCc5c(ccc6c(C7CCC(=O)NC7=O)noc56)C4)CC3)cc2)CC1 (stereo partly drawn) [Compound 58]	< 1	≤ 0.001	IC50 (VCaP cells; Homo sapiens): < 0.01 µM
CN(c1ccc(C#N)c(Cl)c1)[C@H]1CC[C@H](NC(=O)c2ccc(N3CCN(CC4Cc5ccc6c(C7CCC(=O)NC7=O)noc6c5C4)CC3)cc2)CC1 (stereo partly drawn) [Compound 71]	–	≤ 0.001	–
N#Cc1ccc(O[C@H]2CC[C@H](NC(=O)c3ccc(N4CCC(N5CC(CN6Cc7ccc8c(C9CCC(=O)NC9=O)noc8c7C6)C5)CC4)cc3)CC2)cc1Cl (stereo partly drawn) [Compound 80]	–	≤ 0.001	–
N#Cc1ccc(O[C@H]2CC[C@H](NC(=O)c3ccc(N4CCC(N5CC(CN6CCc7ccc8c(C9CCC(=O)NC9=O)noc8c7C6)C5)CC4)cc3)CC2)cc1Cl (stereo partly drawn) [Compound 81]	–	≤ 0.001	–
N#Cc1ccc(O[C@H]2CC[C@H](NC(=O)c3ccc(N4CCC(N5CC(CN6CCc7c(ccc8c(C9CCC(=O)NC9=O)noc78)C6)C5)CC4)cc3)CC2)cc1Cl (stereo partly drawn) [Compound 82]	< 1	≤ 0.001	–
N#Cc1ccc(O[C@H]2CC[C@H](NC(=O)c3ccc(N4CCC(N5CCC(CN6Cc7ccc8c(C9CCC(=O)NC9=O)noc8c7C6)CC5)CC4)nn3)CC2)cc1Cl (stereo partly drawn) [Compound 86]	–	≤ 0.001	–
N#Cc1ccc(O[C@H]2CC[C@H](NC(=O)c3ccc(N4CCC(N5CCC(CN6CCc7ccc8c(C9CCC(=O)NC9=O)noc8c7C6)CC5)CC4)nn3)CC2)cc1Cl (stereo partly drawn) [Compound 87]	–	≤ 0.001	–
N#Cc1ccc(O[C@H]2CC[C@H](NC(=O)c3ccc(N4CCC(N5CCC(CN6CCc7c(ccc8c(C9CCC(=O)NC9=O)noc78)C6)CC5)CC4)nn3)CC2)cc1Cl (stereo partly drawn) [Compound 88]	< 1	≤ 0.001	–
N#Cc1ccc(O[C@H]2CC[C@H](NC(=O)c3ccc(N4CCC(N5CC(CN6CCc7c(ccc8c(C9CCC(=O)NC9=O)noc78)C6)C5)CC4)nn3)CC2)cc1Cl (stereo partly drawn) [Compound 92]	< 1	≤ 0.001	IC50 (VCaP cells; Homo sapiens, VCaP, 168 h): < 0.01 µM
N#Cc1ccc(O[C@H]2CC[C@H](NC(=O)c3ccc(N4CCC(N5CC(N6CCc7ccc8c(C9CCC(=O)NC9=O)noc8c7CC6)C5)CC4)nn3)CC2)cc1Cl (stereo partly drawn) [Compound 95]	< 1	≤ 0.001	IC50 (VCaP cells; Homo sapiens): < 0.1 µM
N#Cc1ccc(O[C@H]2CC[C@H](NC(=O)c3ccc(N4CCC(N5CC(N6Cc7ccc8c(C9CCC(=O)NC9=O)coc8c7C6)C5)CC4)nn3)CC2)cc1Cl (stereo partly drawn) [Compound 96]	< 1	≤ 0.001	IC50 (VCaP cells; Homo sapiens, VCaP, 168 h): < 0.01 µM
N#Cc1ccc(O[C@H]2CC[C@H](NC(=O)c3ccc(N4CCN(C5CN(CC6Cc7ccc8c(C9CCC(=O)NC9=O)coc8c7C6)C5)CC4)nn3)CC2)cc1Cl (stereo partly drawn) [Compound 108]	–	≤ 0.001	IC50 (LNCaP cells): < 1 µM; IC50 (VCaP cells): < 0.01 µM
CN(c1ccc(C#N)c(Cl)c1)[C@H]1CC[C@H](NC(=O)c2ccc(N3CC(CN4CCc5c(ccc6c(C7CCC(=O)NC7=O)noc56)C4)C3)cc2)CC1 (stereo partly drawn) [Compound 113]	< 1	≤ 0.001	IC50 (VCaP cells; Homo sapiens): < 0.1 µM

Reference: patent US20260035384A1, “COMPOUND CONTAINING CYCLOHEXYL” (CHIA TAI TIANQING PHARMACEUTICAL GROUP CO., LTD., priority 2022, published 2026)
